# Reference: patent publication US20230041859A1, “USE OF TERPENOIDS IN THE TREATMENT OR PREVENTION OF FIBROTIC DISEASES” (Arjil Biotech Holding Company Limited, priority 2021, published 2023)
# Key:
# HepG2 cells = assay: Oleic acid-induced steatosis in HepG2 cells (Oil Red O); type: cell-based, human; conditions: 6 h pre-treatment, then 0.5 mM OA for 24 h, OD 510 nm, at noncytotoxic concentration
# Method: Oleic acid (OA) induced steatosis in HepG2 cells and may consider an in vitro model for human fatty liver disease. HepG2 cells were treated with different concentrations of oleic acid (OA) to induce steatosis. Intracellular lipid was stained by Oil Red O (ORO), and quantified by colorimetric assay. 0.5 mM OA was chosen for further studies (FIGS. 37 and 38). HepG2 cells were treated with test compounds ([…]) and incubated for 48 h (FIG. 39). HepG2 cells were seeded in 24-well plates and deprived from FBS for 24 h. These cells were then treated with different concentrations of test compounds for 6 h before induced with 0.5 mM OA for 24 h. Cells were gently washed with PBS and fixed using paraformaldehyde at RT, then stained with Oil Red (ORO) solution for 30 min at RT. ORO stain was extracted using pure isopropanol and the optical density was detected at 510 nm (FIG. 40).
# [1] = system: cisplatin-induced renal injury; assay: Cisplatin-induced renal injury: kidney histopathology (H&E); type: in vivo, mice; conditions: compound, dose not given
# Excerpt: Kidney histopathology The anterior portion of the left lateral liver lobe from each mouse is fixed in 10% formaldehyde phosphate buffer, embedded in paraffin, cut into 5 μm sections, and then treated with an hematoxylin and eosin (H&E) stain for histological examination under the light microscopy (Nikon, ECLIPSE, TS100, Tokyo, Japan). Images are captured with a digital camera (NIS-Elements D 2.30, SP4, Build 387) at an original magnification of 400×.
# (§1) Seven-to-eight-week-old male C57BL/6 mice are obtained from the BioLASCO Taiwan Co., Ltd. (Taipei, Taiwan). The animals are housed in Plexiglas cages at a constant temperature of 22±1° C. and a relative humidity of 55±5% on a 12 h dark-light cycle for at least 2 weeks before the experiment. Animals are provided food and water ad libitum. All experimental procedures are performed according to the guidelines of the Institutional Animal Ethics Committee, and the protocol is approved by the Committee for the Purpose of Control and Supervision of Experiments on Animals.
# Renal fibrosis is induced via multiple injections of low-dose cisplatin. […]
# The histopathological changes are analyzed to determine whether Antrodia camphorata extract and compounds affected renal failure in cisplatin-stimulated mice. […]
# [2] = system: cisplatin-induced renal injury; assay: Mice model of cisplatin-induced renal injury: serum creatinine (CRE) and BUN; type: in vivo; conditions: compounds, dose not given, daily for 7 days; p<0.001 vs cisplatin group
# Method: Determination of biochemical parameters Serum creatinine and serum urea are assessed using colorimetric kits according to manufacturer's instructions. Kits of the former markers are purchased from (HUMAN Diagnostics Worldwide, Magdeburg, Germany) with a chemical analyzer (Roche Diagnostics, Cobas Mira Plus, Rotkreuz, Switzerland).
# as §1
# Renal fibrosis is induced via multiple injections of low-dose cisplatin. Intraperitoneal injections of cisplatin (5 mg/kg/injection; P4394, Sigma-Aldrich, St Louis, Mo.) are performed at 0, 1, and 3 weeks, for a total of 3 injections. Mice are sacrificed at 6 weeks after the first dose of cisplatin (n=6). To analyze the effects of samples, mice are given daily intraperitoneal injections for 7 days, starting from 4 weeks after first dose of cisplatin, and sacrificed at […] (n=6). […]
# [3] = system: NO, TNF-α, IL-1β, and IL-6; assay: Cisplatin-induced renal injury: pro-inflammatory cytokines in serum (ELISA); type: in vivo, mice; conditions: compound, dose not given
# Method: TNF-α, IL-6, and IL-1β cytokines in serum The serum concentration of the pro-inflammatory cytokines (i.e. tumor necrosis factor-α (TNF-α), interleukin-6 (IL-6), and IL-1β) in serum are assessed with relevant enzyme-linked immunosorbent assay (ELISA) kits (Biosource International Inc., Sunnyvale, Calif., USA), based on the manufacturer's instructions.
# as §1
# Renal fibrosis is induced via multiple injections of low-dose cisplatin. Intraperitoneal injections of cisplatin (5 mg/kg/injection; P4394, Sigma-Aldrich, St Louis, Mo.) are performed at 0, 1, and 3 weeks, for a total of 3 injections. Mice are sacrificed at 6 weeks after the first dose of cisplatin (n=6). […]
# [4] = system: Con A-induced acute hepatitis; assay: Con A (concanavalin A) induced acute hepatitis in BALB/c mice; type: in vivo; conditions: 24 h after Con A; mean±SEM; vehicle 1.4±0.2
# Excerpt: Intravenous injection of concanavalin A (Con A) is a widely used strategy to study T cell mediated hepatitis. Con A is a lectin that can activate CD4^+ T cells, produce cytokines, and lead to liver cell damage. Dexamethasone (Dex) is a long acting synthetic corticosteroid, and has been used as anti-inflammatory and immunosuppressive medication.
# Male BALB/c mice (7-9 weeks old) were purchased from BioLASCO Taiwan Co., Ltd or National Laboratory Animal Center (NLAC, Taiwan). Animals are housed five per cage with food and water provided ad libitum throughout the experiments. Room temperature is maintained at 23±2° C. with an alternating 12 h light dark cycle. Animals are acclimatized for one week to minimize the effect of stress before the experiments. All experimental protocols involving animals and their care are approved by the Institutional Animal Care and Use Committee (IACUC) in ITRI (ITRI-IACUC-2018-041 and ITRI-IACUC-2018-050; accredited by AAALAC) and are carried out according to the regulations of the Council of Agriculture, Taiwan. […]
# To assess the level of hepatocellular injury after Con A treatment, serum GPT and GOT levels are measured by Fuji Dri-Chem slides (Fuji, Japan). […] Cytokine levels are measured by ProcartaPlex™ immunoassays kit according to manufacturer's instructions. […]
# [5] = system: CCl4-induced chronic liver fibrosis; assay: CCl4-induced chronic liver fibrosis in rat; conditions: in vivo
# Method: Blood samples are collected at week 0, 2, 4, 6, and 8. The animals are sacrificed at the end of the 8-week for histopathological examinations. FIGS. 7A, 7B, 7C depict delta weight, liver weight, and liver/body-weight ratio, respectively.
# The level of clinical biochemistry such as aspartate aminotransferase (AST), alanine aminotransferase (ALT), is evaluated to determine the enzymatic activities of the livers of the control groups and the experimental groups (shown in FIGS. 8A-8C).
smiles,measurement,setting,value
"C=C1C(=O)O[C@H]2/C=C(\C)CC3C=C(CC/C=C(\C)CC[C@H]12)C(=O)O3 (stereo partly drawn) [AR100-DS1, Ovatodiolide]",OA-induced steatosis in HepG2 cells,HepG2 cells,inhibition
same,necrosis and inflammatory infiltrating cells in the kidney tissue,[1],significantly improved
same,renal protection effect (normalization of serum CRE and BUN),[2],significant renal protection effect
same,"NO, TNF-α, IL-1β, and IL-6 production after cisplatin challenge",[3],improved
same,liver necrosis histopathological score (0 to 4),[4],0.2±0.2
same,"CCl4-induced liver injury, overall",[5],potential to partially repair
